Assay [1] concerns CD4 cells, isolated from healthy donor PMBCs, infected with HIV VSV-G pseudotyped GFP-GAG reporter virus. Nature of the assay: tissue or blood. It counts as cell-based. To be noted: Homo sapiens, 72 h.
Assay [2] deals with monocytic THP1 cells infected with HIV VSV-G pseudotyped GFP-NEF reporter virus. Nature of the assay: cells. It counts as cell-based. The settings on record: Human immunodeficiency virus 1, THP-1, 24 h.

For orientation: EC50 means the concentration at which the effect is half-maximal. Low values mean an effect from little substance, high ones a need for much substance. In assay [1], `Cc1cc(/C=C/C#N)cc(C)c1Oc1nc(NC23CC(C#N)(C2)C3)nc2nc(C(C)(F)F)n(C)c12` [Compound 41, (E)-3-((6-(4-(2-cyanovinyl)-2,6-dimethylphenoxy)-8-(1,1-difluoroethyl)-7-methyl-7H-purin-2-yl)amino)bicyclo[1.1.1]pentane-1-carbonitrile] had an EC50 of 77.6 nM. `Cc1cc(/C=C/C#N)cc(C)c1Oc1nc(NC23CC(C#N)(C2)C3)nc2nc[nH]c12` [Compound 44, (E)-3-((6-(4-(2-cyanovinyl)-2,6-dimethylphenoxy)-7H-purin-2-yl)amino)bicyclo[1.1.1]pentane-1-carbonitrile] displayed an EC50 in assay [1] of 109 nM. Molecule `Cc1nc2nc(NC34CC(C#N)(C3)C4)nc(Oc3c(F)cc(/C=C/C#N)cc3F)c2[nH]1` [Compound 58, (E)-3-((6-(4-(2-cyanovinyl)-2,6-difluorophenoxy)-8-methyl-7H-purin-2-yl)amino)bicyclo[1.1.1]pentane-1-carbonitrile] displayed an EC50 in assay [1] of 430 nM. As for `Cc1nc2nc(NC34CC(C#N)(C3)C4)nc(Oc3c(Cl)cc(/C=C/C#N)cc3Cl)c2[nH]1` [Compound 59, (E)-3-((6-(2,6-dichloro-4-(2-cyanovinyl)phenoxy)-8-methyl-7H-purin-2-yl)amino)bicyclo[1.1.1]pentane-1-carbonitrile], a half-maximal effect in assay [1] (EC50) was put at 336 nM.

On to `Cc1cc(/C=C/C#N)cc(C)c1Oc1nc(NC23CC(C#N)(C2)C3)nc2ncsc12` [Compound 75, (E)-3-((7-(4-(2-cyanovinyl)-2,6-dimethylphenoxy)thiazolo[4,5-d]pyrimidin-5-yl)amino)bicyclo[1.1.1]pentane-1-carbonitrile], for which, in assay [1], it took 55 nM to reach a half-maximal effect (EC50). As to `Cc1cc(/C=C/C#N)cc(C)c1Oc1nc(NC23CC(C#N)(C2)C3(F)F)nc2[nH]nc(C)c12` [Compound 77, (E)-3-((4-(4-(2-cyanovinyl)-2,6-dimethylphenoxy)-3-methyl-1H-pyrazolo[3,4-d]pyrimidin-6-yl)amino)-2,2-difluorobicyclo[1.1.1]pentane-1-carbonitrile], a half-maximal effect in assay [1] (EC50) was put at 28.2 nM. Molecule `Cc1cc(/C=C/C#N)cc(C)c1Oc1nc(NC23CC(C#N)(C2)C3(F)F)nc2c1CCO2` [Compound 78, (E)-3-((4-(4-(2-cyanovinyl)-2,6-dimethylphenoxy)-5,6-dihydrofuro[2,3-d]pyrimidin-2-yl)amino)-2,2-difluorobicyclo[1.1.1]pentane-1-carbonitrile] gave an EC50 in assay [1] of 12.1 nM.

The molecule `Cc1cc(/C=C/C#N)cc(Cl)c1Oc1nc(NC23CC(C#N)(C2)C3)nc2[nH]nc(C)c12` [Compound 85, (E)-3-((4-(2-chloro-4-(2-cyanovinyl)-6-methylphenoxy)-3-methyl-1H-pyrazolo[3,4-d]pyrimidin-6-yl)amino)bicyclo[1.1.1]pentane-1-carbonitrile] returned an EC50 in assay [1] of 20.9 nM. In the case of `C/C(C#N)=C\c1cc(C)c(Oc2nc(NC34CC(C#N)(C3)C4)nc3nn(C)cc23)c(C)c1` [Example 258, (E)-3-((4-(4-(2-cyanoprop-1-en-1-yl)-2,6-dimethylphenoxy)-2-methyl-2H-pyrazolo[3,4-d]pyrimidin-6-yl)amino)bicyclo[1.1.1]pentane-1-carbonitrile], the EC50 in assay [2] turned out to be 178 nM. Take `Cc1cc(/C=C/C#N)cc(C)c1Oc1nc(NC23CC(C#N)(C2)C3)nc2nn3c(c12)COCC3` [Example 259, (E)-3-((4-(4-(2-cyanovinyl)-2,6-dimethylphenoxy)-7,8-dihydro-5H-pyrimido[4′,5′:3,4]pyrazolo[5,1-c][1,4]oxazin-2-yl)amino)bicyclo[1.1.1]pentane-1-carbonitrile]: the EC50 in assay [2] was 23.6 nM.

The molecule `Cc1cc(/C=C/C#N)cc(C)c1Oc1nc(NC23CC(C#N)(C2)C3)nc2c1C(C)OC2` (centres unmarked) [Example 263, (E)-3-((4-(4-(2-cyanovinyl)-2,6-dimethylphenoxy)-5-methyl-5,7-dihydrofuro[3,4-d]pyrimidin-2-yl)amino)bicyclo[1.1.1]pentane-1-carbonitrile] had an EC50 in assay [2] of 60.4 nM.

The values are drawn from patent US20250333424A1, “ANTIVIRAL COMPOUNDS” (Gilead Sciences, Inc., priority 2024, published 2025).
